Measurements from PubChem BioAssay AID248 (DTP/NCI, 2004).
Values joined by “and” are separate entries in the source; they are usually repeats but may differ in a detail not shown here. Equal entries are not always repeated. Toxic doses and inconclusive results are not listed. Cut-off read from the data, not from the text of the source: active = T/C of 150% or more; inactive = T/C below 125%.

Test system: L1210 leukemia ip in BDF1 mice, survival T/C
Test: NCI In Vivo Anticancer Drug Screen. Data for tumor model L1210 Leukemia (intraperitoneal) in B6D2F1 (BDF1) mice
Settings: endpoint: mean survival time, higher = longer survival
Procedure, shortened: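 Tumor was transplanted into mice, which were then dosed with test compound or vehicle alone. Survival was recorded for each group, and the treated figure was expressed relative to the control figure.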

[1] = dose: 50.0 mg/kg/injection, schedule: Q01DX001 (ip), vehicle: carboxymethylcellulose (CMC)
[2] = dose: 50.0 mg/kg/injection, schedule: Q04DX003 (ip), vehicle: Klucel (hydroxypropylcellulose) (HPC)
[3] = dose: 100.0 mg/kg/injection, schedule: Q01DX001 (ip), vehicle: carboxymethylcellulose (CMC)
[4] = dose: 100.0 mg/kg/injection, schedule: Q01DX009 (ip), vehicle: Klucel (hydroxypropylcellulose) (HPC)
[5] = dose: 100.0 mg/kg/injection, schedule: Q04DX003 (ip), vehicle: Klucel (hydroxypropylcellulose) (HPC)
[6] = dose: 200.0 mg/kg/injection, schedule: Q01DX001 (ip), vehicle: carboxymethylcellulose (CMC)
[7] = dose: 200.0 mg/kg/injection, schedule: Q01DX009 (ip), vehicle: Klucel (hydroxypropylcellulose) (HPC)
[8] = dose: 200.0 mg/kg/injection, schedule: Q04DX003 (ip), vehicle: Klucel (hydroxypropylcellulose) (HPC)
[9] = dose: 400.0 mg/kg/injection, schedule: Q01DX001 (ip), vehicle: carboxymethylcellulose (CMC)
[10] = dose: 25.0 mg/kg/injection, schedule: Q01DX009 (ip), vehicle: saline with Tween-80
[11] = dose: 50.0 mg/kg/injection, schedule: Q01DX009 (ip), vehicle: saline with Tween-80
[12] = dose: 100.0 mg/kg/injection, schedule: Q01DX009 (ip), vehicle: saline with Tween-80
[13] = dose: 100.0 mg/kg/injection, schedule: Q04DX003 (ip), vehicle: saline
[14] = dose: 200.0 mg/kg/injection, schedule: Q04DX003 (ip), vehicle: saline
[15] = dose: 400.0 mg/kg/injection, schedule: Q04DX003 (ip), vehicle: saline
[16] = dose: 100.0 mg/kg/injection, schedule: Q01DX001 (ip), vehicle: Klucel (hydroxypropylcellulose) (HPC)
[17] = dose: 100.0 mg/kg/injection, schedule: Q04DX002 (ip), vehicle: Klucel (hydroxypropylcellulose) (HPC)
[18] = dose: 200.0 mg/kg/injection, schedule: Q04DX002 (ip), vehicle: Klucel (hydroxypropylcellulose) (HPC)
[19] = dose: 400.0 mg/kg/injection, schedule: Q01DX009 (ip), vehicle: Klucel (hydroxypropylcellulose) (HPC)
[20] = dose: 100.0 mg/kg/injection, schedule: Q04DX003 (ip), vehicle: saline with Tween-80
[21] = dose: 400.0 mg/kg/injection, schedule: Q04DX003 (ip), vehicle: saline with Tween-80
[22] = dose: 400.0 mg/kg/injection, schedule: Q04DX003 (ip), vehicle: Klucel (hydroxypropylcellulose) (HPC)
[23] = dose: 100.0 mg/kg/injection, schedule: Q04DX002 (ip), vehicle: saline with Tween-80
[24] = dose: 200.0 mg/kg/injection, schedule: Q04DX002 (ip), vehicle: saline with Tween-80

Measured: T/C

O=C(Oc1ccc(Cl)cc1Cl)Oc1ccc(Cl)cc1Cl
inactive: [1] 98 % of control | dose: 50.0 mg/kg/injection, schedule: Q01DX009 (ip), vehicle: Klucel (hydroxypropylcellulose) (HPC) 105 % of control | [2] 98 % of control | [3] 104 % of control | [4] 100 % of control | [5] 95 % of control | [6] 104 % of control | [7] 103 % of control | [8] 106 % of control | [9] 93 % of control

C(=Nc1ccc(-c2ccccc2)cc1)c1ccccc1
inactive: [10] 105 % of control | [11] 97 % of control | [12] 92 % of control

BrC(c1ccccc1)C(Br)[n+]1ccccc1 (stereo not given)
inactive: dose: 75.0 mg/kg/injection, schedule: Q01DX001 (ip), vehicle: other 107 % of control

O=C1OCC2(CO)SC(c3ccccc3)NC12 (stereo not given)
inactive: [13] 98 % of control | [14] 92 % of control | [15] 98 % of control

NN=C1c2ccccc2C(F)(F)c2ccccc21
inactive: dose: 50.0 mg/kg/injection, schedule: Q01DX001 (ip), vehicle: Klucel (hydroxypropylcellulose) (HPC) 95 % of control | [16] 95 % of control

CCCNC(=O)Oc1cccc2cccnc12
inactive: [4] 93 % of control and 95 % of control | [17] 97 % of control and 105 % of control | [7] 101 % of control and 112 % of control | [18] 102 % of control and 103 % of control | [19] 95 % of control

O=C(N/N=C/c1ccc([N+](=O)[O-])s1)c1ccccc1O
inactive: [13] 94 % of control | [14] 100 % of control | [15] 97 % of control

C=C1C(=O)OC2C1CCC(C)C1(CCC(=O)O1)C2(C)O (stereo not given)
inactive: [20] 96 % of control | dose: 200.0 mg/kg/injection, schedule: Q04DX003 (ip), vehicle: saline with Tween-80 96 % of control | [21] 96 % of control

CN1CCN(C(=O)c2ccc(Cl)c(Cl)c2)CC1
inactive: dose: 12.5 mg/kg/injection, schedule: Q01DX009 (ip), vehicle: saline with Tween-80 117 % of control | dose: 12.5 mg/kg/injection, schedule: Q04DX003 (ip), vehicle: saline 102 % of control | [10] 114 % of control | dose: 25.0 mg/kg/injection, schedule: Q04DX003 (ip), vehicle: saline 102 % of control | [11] 102 % of control and 115 % of control | dose: 50.0 mg/kg/injection, schedule: Q04DX003 (ip), vehicle: saline 108 % of control | dose: 75.0 mg/kg/injection, schedule: Q01DX009 (ip), vehicle: saline with Tween-80 115 % of control | [12] 95 % of control

CCCCCCCNc1ccc(S(=O)(=O)c2ccc(NCCCCCCC)c([N+](=O)[O-])c2)cc1[N+](=O)[O-]
inactive: dose: 25.0 mg/kg/injection, schedule: Q01DX009 (ip), vehicle: DMSO 94 % of control | dose: 50.0 mg/kg/injection, schedule: Q01DX009 (ip), vehicle: DMSO 98 % of control | dose: 100.0 mg/kg/injection, schedule: Q01DX005 (ip), vehicle: DMSO 90 % of control | dose: 100.0 mg/kg/injection, schedule: Q01DX009 (ip), vehicle: DMSO 94 % of control and 98 % of control | dose: 100.0 mg/kg/injection, schedule: Q04DX002 (ip), vehicle: DMSO 100 % of control | dose: 200.0 mg/kg/injection, schedule: Q01DX009 (ip), vehicle: DMSO 101 % of control | dose: 200.0 mg/kg/injection, schedule: Q04DX002 (ip), vehicle: DMSO 88 % of control | dose: 400.0 mg/kg/injection, schedule: Q01DX005 (ip), vehicle: DMSO 90 % of control | dose: 400.0 mg/kg/injection, schedule: Q01DX009 (ip), vehicle: DMSO 100 % of control | dose: 400.0 mg/kg/injection, schedule: Q04DX002 (ip), vehicle: DMSO 96 % of control

BrCc1cccc(C[P+](c2ccccc2)(c2ccccc2)c2ccccc2)c1
inactive: dose: 5.0 mg/kg/injection, schedule: Q01DX001 (ip), vehicle: saline 112 % of control | dose: 10.0 mg/kg/injection, schedule: Q01DX001 (ip), vehicle: saline 114 % of control | dose: 20.0 mg/kg/injection, schedule: Q01DX001 (ip), vehicle: saline 114 % of control | dose: 50.0 mg/kg/injection, schedule: Q01DX001 (ip), vehicle: saline 110 % of control

CN1c2ccccc2Sc2ccccc21
inactive: [1] 94 % of control | [3] 96 % of control | [6] 107 % of control

CC(C)Cc1ccc(OC(=O)Nc2ccc(Cl)cc2)cc1
inactive: dose: 25.0 mg/kg/injection, schedule: Q04DX003 (ip), vehicle: saline with Tween-80 95 % of control | dose: 50.0 mg/kg/injection, schedule: Q04DX003 (ip), vehicle: saline with Tween-80 95 % of control | [20] 95 % of control

CC(C)c1cccc(C(C)C)c1OC(=O)Nc1ccccc1
inactive: [16] 101 % of control | [4] 97 % of control | [17] 95 % of control and 102 % of control | [5] 116 % of control | dose: 200.0 mg/kg/injection, schedule: Q01DX001 (ip), vehicle: Klucel (hydroxypropylcellulose) (HPC) 88 % of control | [7] 98 % of control and 87 % of control | [18] 97 % of control and 108 % of control | [8] 100 % of control | dose: 400.0 mg/kg/injection, schedule: Q01DX001 (ip), vehicle: Klucel (hydroxypropylcellulose) (HPC) 87 % of control | [19] 103 % of control and 113 % of control | dose: 400.0 mg/kg/injection, schedule: Q04DX002 (ip), vehicle: Klucel (hydroxypropylcellulose) (HPC) 102 % of control and 90 % of control | [22] 108 % of control

COc1ccc([P+](=S)SS[P+](=S)c2ccc(OC)cc2)cc1 (stereo not given)
inactive: [23] 101 % of control | [24] 97 % of control

C/C=C/C=C/COC(=O)C(C)(C)C
inactive: dose: 50.0 mg/kg/injection, schedule: Q04DX002 (ip), vehicle: saline 103 % of control | dose: 100.0 mg/kg/injection, schedule: Q04DX002 (ip), vehicle: saline 95 % of control and 96 % of control | dose: 200.0 mg/kg/injection, schedule: Q04DX002 (ip), vehicle: saline 98 % of control | dose: 400.0 mg/kg/injection, schedule: Q04DX002 (ip), vehicle: saline 96 % of control and 107 % of control

COC1CCC(N)CC1 (stereo not given)
inactive: dose: 100.0 mg/kg/injection, schedule: Q01DX001 (ip), vehicle: saline 109 % of control | dose: 200.0 mg/kg/injection, schedule: Q01DX001 (ip), vehicle: saline 107 % of control | dose: 400.0 mg/kg/injection, schedule: Q01DX001 (ip), vehicle: saline 97 % of control

CCc1ccc(N=Nc2ccc(N(C)C)cc2)cc1
inactive: [2] 93 % of control | [3] 110 % of control | [5] 96 % of control | [6] 89 % of control | [8] 96 % of control | [9] 101 % of control

COc1ccc(COC2C(CO)OC(n3ccc(N)nc3=O)C2O)cc1 (stereo not given)
inactive: dose: 100.0 mg/kg/injection, schedule: Q01DX005 (ip), vehicle: saline 100 % of control | dose: 200.0 mg/kg/injection, schedule: Q01DX005 (ip), vehicle: saline 94 % of control

CC(NC(=O)C(C)(C)C)c1ccc2c(c1)OCCO2 (stereo not given)
inactive: [23] 106 % of control | [24] 95 % of control | dose: 400.0 mg/kg/injection, schedule: Q04DX002 (ip), vehicle: saline with Tween-80 95 % of control

O=C(OCC1CCCO1)c1ccccc1O (stereo not given)
inactive: [5] 100 % of control | [8] 100 % of control | [22] 95 % of control

COc1ccc2c(c1OC)C1(CCN(C)C)CC(O)CCC1C=C2 (stereo not given)
inactive: [13] 102 % of control | [14] 102 % of control

COc1cc(N)ccc1/C=C/C(=O)O
inactive: [13] 97 % of control | [14] 98 % of control | [15] 92 % of control

CC(C(N)=O)N1C(=O)C2C3C=CC(C3)C2C1=O (stereo not given)
inactive: [20] 109 % of control | [21] 97 % of control
